Our source for the class values is US20050197350A1, “Novel quinoline, tetrahydroquinazoline, and pyrimidine derivatives and methods of treatment related to the use thereof” (TAISHO PHARMACEUTICAL CO., LTD., priority 2003, published 2005).

One experiment deals with MCH receptors. Nature of the experiment: MCH receptor activity class (method not given).
Conditions: not given
On to `Cc1cc(N(C)C)nc(N[C@H]2CC[C@@H](NC(=O)c3ccc(F)cc3)CC2)n1` [Example 2570, N-(cis-4-{[4-(dimethylamino)-6-methylpyrimidin-2-yl]amino}cyclohexyl)-4-fluorobenzamide], for which the class stood at 1.

`Cc1cc(N(C)C)nc(N[C@H]2CC[C@@H](C(=O)NCc3ccc(Cl)cc3)CC2)n1` [Example 2580, cis-N-(4-chlorobenzyl)-4-{[4-(dimethylamino)-6-methylpyrimidin-2-yl]amino}cyclohexanecarboxamide]: the class is reported as 1.

Still in this experiment, the particulars now being: MCH receptor; class by percent of control at 10^-7 M or IC50.
Take `CN(C)c1nc(N[C@H]2CC[C@@H](NC(=S)Nc3cccc([N+](=O)[O-])c3)CC2)nc2c1CCCC2` [compound 1952]: the class is recorded as 3 (Class 3 The value of percent of control at 10^−7 M was more than 60% or the value of IC50 was more than 200 nM.).

With `CN(C)c1nc(N[C@H]2CC[C@@H](NC(=O)Nc3ccccc3OC(F)(F)F)CC2)nc2c1CCCC2` [compound 1909, N-(cis-4-{[4-(dimethylamino)-5,6,7,8-tetrahydroquinazolin-2-yl]amino}cyclohexyl)-N′-[2-(trifluoromethoxy)phenyl]urea], the class was 2 (Class 2: The value of percent of control at 10^−7 M was from 40% to 60% or the value of IC′50 was from 50 nM to 200 nM.).

As for `CN(C)c1cc(N[C@H]2CC[C@@H](NC(=O)c3sc(Cl)c(Cl)c3Cl)CC2)nc2ccccc12` [compound 132], the class is listed as 3 (Class 3 The value of percent of control at 10^−7 M was more than 60% or the value of IC50 was more than 200 nM.).

The same experiment, now with this note: activity class per percent of control at 10^-7 M or IC50.
In the case of `COc1ccc2[nH]cc(CNC[C@H]3CC[C@@H](Nc4cc(N(C)C)c5ccccc5n4)CC3)c2c1` [compound 1127], the class is on record as 3 (Class 3 The value of percent of control at 10^−7 M was more than 60% or the value of IC50 was more than 200 nM.).

Staying with this experiment, now noted: class 1-3 by percent of control at 10^-7 M or IC50.
As to `CN(C)c1ccnc(N[C@H]2CC[C@@H](CNC(=O)CC3CCCC3)CC2)n1` [compound 420], the class is recorded as 3 (Class 3 The value of percent of control at 10^−7 M was more than 60% or the value of IC50 was more than 200 nM.).

The same experiment, now with this note: class by percent of control at 10^-7 M or IC50.
For the compound `CN(C)c1ccnc(N[C@H]2CC[C@@H](NC(=O)c3ccccc3CCc3ccccc3)CC2)n1` [compound 872], the class is 3 (Class 3 The value of percent of control at 10^−7 M was more than 60% or the value of IC50 was more than 200 nM.).

In the case of `CN(C)c1ccnc(N[C@H]2CC[C@@H](NC(=O)Cc3cccs3)CC2)n1` [compound 271], the class is reported as 3 (Class 3 The value of percent of control at 10^−7 M was more than 60% or the value of IC50 was more than 200 nM.).

`COc1cc(C(=O)N[C@H]2CC[C@@H](Nc3nccc(N(C)C)n3)CC2)ccc1[N+](=O)[O-]` [compound 829, N-(cis-4-{[4-(dimethylamino)pyrimidin-2-yl]amino}cyclohexyl)-3-methoxy-4-nitrobenzamide]: the class is 1 (Class 1: The value of percent of control at 10^−7 M was less than 40% or the value of IC50 was less than 50 nM.).

With `CN(C)c1ccnc(N[C@H]2CC[C@@H](NC(=O)c3cc(-c4ccccc4)nc4ccccc34)CC2)n1` [compound 896, N-(cis-4-{[4-(dimethylamino)pyrimidin-2-yl]amino}cyclohexyl)-2-phenylquinoline-4-carboxamide], the class was 2 (Class 2: The value of percent of control at 10^−7 M was from 40% to 60% or the value of IC′50 was from 50 nM to 200 nM.).

For the compound `CN(C)c1nc(N[C@H]2CC[C@@H](CNC(=O)c3ccc(F)c(Cl)c3F)CC2)nc2c1CCCC2` [compound 624], the class was 3 (Class 3 The value of percent of control at 10^−7 M was more than 60% or the value of IC50 was more than 200 nM.).

Regarding `CN(C)c1ccnc(N[C@H]2CC[C@@H](NC(=O)c3ccc(F)c(F)c3)CC2)n1` [compound 251, N-(cis-4-{[4-(dimethylamino)pyrimidin-2-yl]amino}cyclohexyl)-3,4-difluorobenzamide], the class was 1 (Class 1: The value of percent of control at 10^−7 M was less than 40% or the value of IC50 was less than 50 nM.).

As to `CN(C)c1nc(N[C@H]2CC[C@@H](NC(=O)NCc3ccccc3)CC2)nc2c1CCCC2` [compound 1812], the class is 3 (Class 3 The value of percent of control at 10^−7 M was more than 60% or the value of IC50 was more than 200 nM.).

As for `CN(C)c1nc(N[C@H]2CC[C@@H](NC(=O)Nc3cc(C(F)(F)F)cc(C(F)(F)F)c3)CC2)nc2c1CCCC2` [compound 1811], the class is 3 (Class 3 The value of percent of control at 10^−7 M was more than 60% or the value of IC50 was more than 200 nM.).

As for `CN(C)c1nc(N[C@H]2CC[C@@H](NCc3coc4ccc(Cl)cc4c3=O)CC2)nc2c1CCCC2` [compound 1355], the class is 3 (Class 3 The value of percent of control at 10^−7 M was more than 60% or the value of IC50 was more than 200 nM.).

Consider `CN(C)c1nc(N[C@H]2CC[C@@H](NC(=O)CCC3CCCCC3)CC2)nc2c1CCCC2` [compound 971], for which the class was 3 (Class 3 The value of percent of control at 10^−7 M was more than 60% or the value of IC50 was more than 200 nM.).

Still in this experiment, the particulars now being: class by percent of control at 10^−7 M or IC50.
With `Cc1cc(N(C)C)nc(N[C@H]2CC[C@@H](NC(=O)c3ccc(OC(F)(F)F)cc3)CC2)n1` [compound 2989, N-(cis-4-{[4-(dimethylamino)-6-methylpyrimidin-2-yl]amino}cyclohexyl)-4-(trifluoromethoxy)benzamide], the class is 3 (Class 3 The value of percent of control at 10^−7 M was more than 60% or the value of IC50 was more than 200 nM.).

Take `COc1cccc([C@@H](C)NC(=O)[C@H]2CC[C@@H](Nc3ncc(C)c(N(C)C)n3)CC2)c1` [compound 2775, cis-4-{[4-(dimethylamino)-5-methylpyrimidin-2-yl]amino}-N-[(1R)-1-(3-methoxyphenyl)ethyl]cyclohexanecarboxamide]: the class was 1 (Class 1: The value of percent of control at 10^−7 M was less than 40% or the value of IC50 was less than 50 nM.).

`Cc1ncccc1C(=O)N[C@H]1CC[C@@H](Nc2nc(C)c(C)c(N(C)C)n2)CC1` [compound 2831]: the class is reported as 3 (Class 3 The value of percent of control at 10^−7 M was more than 60% or the value of IC50 was more than 200 nM.).

For `Cc1cnc(N[C@H]2CC[C@@H](NC(=O)c3ccc(F)cc3)CC2)nc1N(C)C` [compound 2899, N-(cis-4-{[4-(dimethylamino)-5-methylpyrimidin-2-yl]amino}cyclohexyl)-4-fluorobenzamide], the class is given as 1 (Class 1: The value of percent of control at 10^−7 M was less than 40% or the value of IC50 was less than 50 nM.).

Regarding `COc1cccc(CNC(=O)[C@H]2CC[C@@H](Nc3nc(C)cc(N(C)C)n3)CC2)c1` [compound 2815, cis-4-{[4-(dimethylamino)-6-methylpyrimidin-2-yl]amino}-N-(3-methoxybenzyl)cyclohexanecarboxamide], the class is 1 (Class 1: The value of percent of control at 10^−7 M was less than 40% or the value of IC50 was less than 50 nM.).

`Cc1cnc(N[C@H]2CC[C@@H](NC(=O)c3cccnc3Oc3cccc(Br)c3)CC2)nc1N(C)C` [compound 2894, 2-(3-bromophenoxy)-N-(cis-4-{[4-(dimethylamino)-5-methylpyrimidin-2-yl]amino}cyclohexyl)nicotinamide]: the class was 1 (Class 1: The value of percent of control at 10^−7 M was less than 40% or the value of IC50 was less than 50 nM.).
